Laboratory results published in ChEMBL document CHEMBL1201862, “PubChem BioAssay data set” (2004).
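Dose response: 5 concentrations. Exposure: 48 h. Format: 96-well plates. Endpoint: linear interpolation; highest concentration if not reached. GI50: concentration for 50% inhibition of growth.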 Active and inactive are the calls of the source. No stated cut-off is given here; in the data, active = GI50 up to about 1.1 µM and inactive = higher.

Experiments:
Assay in all cases: growth of human tumour cells (NCI), 48 h
786-0 = system: 786-0
A549 = system: A549
ACHN = system: ACHN
BT-549 = system: BT-549
CAKI-1 = system: CAKI-1
CCRF-CEM = system: CCRF-CEM
COLO 205 = system: COLO 205
DU-145 = system: DU-145
EKVX = system: EKVX
HCC 2998 = system: HCC 2998
HCT-116 = system: HCT-116
HCT-15 = system: HCT-15
HL-60 = system: HL-60
HOP-62 = system: HOP-62
HOP-92 = system: HOP-92
HT-29 = system: HT-29
Hs-578T = system: Hs-578T
IGROV-1 = system: IGROV-1
K562 = system: K562
KM12 = system: KM12
LOX IMVI = system: LOX IMVI
M14 = system: M14
MCF7 = system: MCF7
MDA-MB-231 = system: MDA-MB-231
MDA-MB-435 = system: MDA-MB-435
MDA-N = system: MDA-N
MOLT-4 = system: MOLT-4
Malme-3M = system: Malme-3M
NCI-H226 = system: NCI-H226
NCI-H23 = system: NCI-H23
NCI-H460 = system: NCI-H460
NCI-H522 = system: NCI-H522
NCI/ADR-RES = system: NCI/ADR-RES
OVCAR-3 = system: OVCAR-3
OVCAR-4 = system: OVCAR-4
OVCAR-5 = system: OVCAR-5
OVCAR-8 = system: OVCAR-8
PC-3 = system: PC-3
RPMI-8226 = system: RPMI-8226
RXF 393 = system: RXF 393
SF-268 = system: SF-268
SF-295 = system: SF-295
SF-539 = system: SF-539
SK-MEL-28 = system: SK-MEL-28
SK-MEL-2 = system: SK-MEL-2
SK-MEL-5 = system: SK-MEL-5
SK-OV-3 = system: SK-OV-3
SN12C = system: SN12C
SNB-19 = system: SNB-19
SNB-75 = system: SNB-75
SR = system: SR
SW-620 = system: SW-620
T47D = system: T47D
TK-10 = system: TK-10
U-251 = system: U-251
UACC-257 = system: UACC-257
UACC-62 = system: UACC-62
UO-31 = system: UO-31
A498 = system: A498

COc1cc(C)cc(C(=O)OCc2ccccc2)c1C1=C(Cl)C(=O)C(Cl)=CC1=O
GI50 (786-0): > 5.71 µM (inactive) | GI50 (A549): > 10 µM (inactive) | GI50 (ACHN): > 10 µM (inactive) | GI50 (BT-549): > 10 µM (inactive) | GI50 (CAKI-1): > 10 µM (inactive) | GI50 (CCRF-CEM): 2.08 µM (inactive) | GI50 (COLO 205): > 6.14 µM (inactive) | GI50 (DU-145): > 10 µM (inactive) | GI50 (EKVX): > 10 µM (inactive) | GI50 (HCC 2998): > 10 µM (inactive) | GI50 (HCT-116): > 10 µM (inactive) | GI50 (HCT-15): > 10 µM | GI50 (HL-60): 1.86 µM (inactive) | GI50 (HOP-62): > 10 µM (inactive) | GI50 (HOP-92): 3.51 µM (inactive) | GI50 (HT-29): > 10 µM (inactive) | GI50 (Hs-578T): > 10 µM (inactive) | GI50 (IGROV-1): > 10 µM (inactive) | GI50 (K562): 2.27 µM (inactive) | GI50 (KM12): > 10 µM (inactive) | GI50 (LOX IMVI): > 10 µM (inactive) | GI50 (M14): > 10 µM (inactive) | GI50 (MCF7): > 9.42 µM (inactive) | GI50 (MDA-MB-231): > 10 µM (inactive) | GI50 (MDA-MB-435): > 10 µM (inactive) | GI50 (MDA-N): > 10 µM (inactive) | GI50 (MOLT-4): 2.42 µM (inactive) | GI50 (Malme-3M): > 10 µM (inactive) | GI50 (NCI-H226): > 10 µM (inactive) | GI50 (NCI-H23): > 10 µM (inactive) | GI50 (NCI-H460): > 10 µM (inactive) | GI50 (NCI-H522): 2.05 µM (inactive) | GI50 (NCI/ADR-RES): > 10 µM (inactive) | GI50 (OVCAR-3): 4.6 µM (inactive) | GI50 (OVCAR-4): > 5.13 µM (inactive) | GI50 (OVCAR-5): > 10 µM (inactive) | GI50 (OVCAR-8): > 10 µM (inactive) | GI50 (PC-3): > 10 µM (inactive) | GI50 (RPMI-8226): > 5.79 µM (inactive) | GI50 (RXF 393): > 10 µM (inactive) | GI50 (SF-268): > 10 µM (inactive) | GI50 (SF-295): > 10 µM (inactive) | GI50 (SF-539): > 10 µM (inactive) | GI50 (SK-MEL-28): > 10 µM (inactive) | GI50 (SK-MEL-2): > 10 µM (inactive) | GI50 (SK-MEL-5): > 10 µM (inactive) | GI50 (SK-OV-3): > 10 µM (inactive) | GI50 (SN12C): > 10 µM (inactive) | GI50 (SNB-19): > 10 µM (inactive) | GI50 (SNB-75): > 10 µM (inactive) | GI50 (SR): 4.13 µM (inactive) | GI50 (SW-620): > 7.59 µM (inactive) | GI50 (T47D): 6.44 µM (inactive) | GI50 (TK-10): > 10 µM (inactive) | GI50 (U-251): > 10 µM (inactive) | GI50 (UACC-257): > 9.02 µM (inactive) | GI50 (UACC-62): > 10 µM (inactive) | GI50 (UO-31): 3.25 µM (inactive)

COC(=O)[C@@]1(Cc2ccc(O)cc2)C[C@@H]2Cc3ccccc3N2N1
GI50 (786-0): > 100 µM (inactive) | GI50 (A498): 27.9 µM (inactive) | GI50 (A549): 81.7 µM (inactive) | GI50 (ACHN): > 100 µM (inactive) | GI50 (BT-549): 45 µM (inactive) | GI50 (CAKI-1): > 100 µM (inactive) | GI50 (COLO 205): 79.1 µM (inactive) | GI50 (DU-145): > 100 µM (inactive) | GI50 (EKVX): 64.7 µM (inactive) | GI50 (HCT-116): 65.3 µM (inactive) | GI50 (HCT-15): 81.8 µM | GI50 (HOP-62): > 100 µM (inactive) | GI50 (HOP-92): 43.6 µM (inactive) | GI50 (HT-29): 35.5 µM (inactive) | GI50 (Hs-578T): 68.4 µM (inactive) | GI50 (IGROV-1): 78 µM (inactive) | GI50 (KM12): > 100 µM (inactive) | GI50 (LOX IMVI): > 100 µM (inactive) | GI50 (M14): 38.8 µM (inactive) | GI50 (MCF7): 63.2 µM (inactive) | GI50 (MDA-MB-231): 49.1 µM (inactive) | GI50 (MDA-MB-435): > 100 µM (inactive) | GI50 (MDA-N): 44.8 µM (inactive) | GI50 (MOLT-4): 4.8 µM (inactive) | GI50 (Malme-3M): 49 µM (inactive) | GI50 (NCI-H226): 90.8 µM (inactive) | GI50 (NCI-H23): 56.9 µM (inactive) | GI50 (NCI-H522): 58.2 µM (inactive) | GI50 (NCI/ADR-RES): 31.8 µM (inactive) | GI50 (OVCAR-3): > 100 µM (inactive) | GI50 (OVCAR-4): > 100 µM (inactive) | GI50 (OVCAR-5): > 100 µM (inactive) | GI50 (OVCAR-8): 71.8 µM (inactive) | GI50 (PC-3): 34.5 µM (inactive) | GI50 (RPMI-8226): 30.5 µM (inactive) | GI50 (SF-268): > 100 µM (inactive) | GI50 (SF-295): 49.1 µM (inactive) | GI50 (SF-539): > 100 µM (inactive) | GI50 (SK-MEL-28): > 100 µM (inactive) | GI50 (SK-MEL-2): 25.4 µM (inactive) | GI50 (SK-MEL-5): 34.5 µM (inactive) | GI50 (SK-OV-3): > 100 µM (inactive) | GI50 (SN12C): 71 µM (inactive) | GI50 (SNB-19): > 100 µM (inactive) | GI50 (SR): 31.3 µM (inactive) | GI50 (SW-620): > 100 µM (inactive) | GI50 (T47D): 23.5 µM (inactive) | GI50 (TK-10): > 100 µM (inactive) | GI50 (U-251): 57.1 µM (inactive) | GI50 (UACC-257): 23.3 µM (inactive) | GI50 (UACC-62): 70.8 µM (inactive) | GI50 (UO-31): 75.7 µM (inactive)

C=C1CC(C)(COc2ccc3ccc(=O)oc3c2)OC1=O (stereo not drawn)
GI50 (786-0): 1.42 µM (inactive) | GI50 (A498): 7.45 µM (inactive) | GI50 (A549): 13.5 µM (inactive) | GI50 (ACHN): 3.46 µM (inactive) | GI50 (BT-549): 1.02 µM (active) | GI50 (CAKI-1): 2.03 µM (inactive) | GI50 (CCRF-CEM): 0.402 µM (active) | GI50 (COLO 205): 0.982 µM (active) | GI50 (DU-145): 3.22 µM (inactive) | GI50 (EKVX): 7.53 µM (inactive) | GI50 (HCC 2998): 2.18 µM (inactive) | GI50 (HCT-116): 1.14 µM (inactive) | GI50 (HCT-15): 2.61 µM | GI50 (HL-60): 0.256 µM (active) | GI50 (HOP-62): 16 µM (inactive) | GI50 (HOP-92): 1.12 µM (inactive) | GI50 (HT-29): 1.57 µM (inactive) | GI50 (Hs-578T): 4.91 µM (inactive) | GI50 (IGROV-1): 2.93 µM (inactive) | GI50 (K562): 0.581 µM (active) | GI50 (KM12): 4.07 µM (inactive) | GI50 (LOX IMVI): 1.35 µM (inactive) | GI50 (M14): 1.14 µM (inactive) | GI50 (MCF7): 1.48 µM (inactive) | GI50 (MDA-MB-231): 8.28 µM (inactive) | GI50 (MDA-MB-435): 2.12 µM (inactive) | GI50 (MDA-N): 0.951 µM (active) | GI50 (MOLT-4): 1.18 µM (inactive) | GI50 (Malme-3M): 1.01 µM (active) | GI50 (NCI-H226): 11.4 µM (inactive) | GI50 (NCI-H23): 2.29 µM (inactive) | GI50 (NCI-H460): 6.62 µM (inactive) | GI50 (NCI-H522): 0.733 µM (active) | GI50 (NCI/ADR-RES): 1.04 µM (active) | GI50 (OVCAR-3): 3.72 µM (inactive) | GI50 (OVCAR-4): 2.84 µM (inactive) | GI50 (OVCAR-5): 6.73 µM (inactive) | GI50 (OVCAR-8): 4.72 µM (inactive) | GI50 (PC-3): 3.48 µM (inactive) | GI50 (RPMI-8226): 0.757 µM (active) | GI50 (SF-268): 10.9 µM (inactive) | GI50 (SF-295): 5.68 µM (inactive) | GI50 (SF-539): 2.65 µM (inactive) | GI50 (SK-MEL-28): 2.94 µM (inactive) | GI50 (SK-MEL-2): 1.31 µM (inactive) | GI50 (SK-MEL-5): 2.34 µM (inactive) | GI50 (SK-OV-3): 8.15 µM (inactive) | GI50 (SN12C): 8.22 µM (inactive) | GI50 (SNB-19): 18.7 µM (inactive) | GI50 (SNB-75): 9.57 µM (inactive) | GI50 (SR): 1.08 µM (active) | GI50 (SW-620): 0.822 µM (active) | GI50 (T47D): 3.66 µM (inactive) | GI50 (TK-10): 1.58 µM (inactive) | GI50 (U-251): 13 µM (inactive) | GI50 (UACC-257): 0.671 µM (active) | GI50 (UACC-62): 2.94 µM (inactive) | GI50 (UO-31): 15.8 µM (inactive)
